{
  "source": "paper PMC7281280",
  "about": "“Is the Way to Fight Cancer Paved with Gold? Metal-Based Carbene Complexes with Multiple and Fascinating Biological Features” (Pharmaceuticals, 2020)",
  "key": {"[1]": {"tested_on": "HeLa human epithelial cervix carcinoma cells", "assay": "MTT cell viability, HeLa", "assay_type": "cell-based", "details": "72 h, mean ± SD", "procedure": "(§1) The six cell lines used in this work (MCF-7, MDA-MB-231, HeLa, […], MCF-10A and Hek-293) were purchased from American Type Culture Collection (ATCC, Manassas, VA, USA). MCF-7 human breast cancer cells, estrogen receptor (ER)-positive, were maintained in Dulbecco’s modified Eagle’s medium/nutrient mixture Ham F-12 (DMEM/F12), supplemented with 10% fetal bovine serum (FBS) and 100 U mL^−1 penicillin/streptomycin. MCF-10A human mammary epithelial cells, were cultured in DMEM/F12 medium, supplemented with 5% horse serum (HS, Thermo Fisher Scientific, Milan, Italy), 100 U mL^−1 penicillin/streptomycin, […] hydrocortisone, 20 ng mL^−1 human epidermal growth factor (hEGF), […] insulin, and […] cholera enterotoxin (Sigma–Aldrich, Milan, Italy). MDA-MB-231 human breast cancer cells, known as triple-negative cells (i.e., not overexpressing human epidermal growth factor receptor 2 (HER2), estrogen and progesterone receptors), were cultured in DMEM/F12 supplemented with 5% FBS, 1% L-glutamine and 100 U mL^−1 penicillin/streptomycin. HeLa human epithelial cervix carcinoma cells, estrogen receptor (ER)-negative, and […] human endometrial adenocarcinoma cells, estrogen receptor (ER)-positive, were maintained in minimum essential Eagle’s Medium (MEM), supplemented with 10% FBS, 1% L-glutamine, 100 U mL^−1 penicillin/streptomycin and 1% Non-Essential Amino Acids (NEAA). Hek-293 human embryonic kidney epithelial cells were cultured in DMEM high glucose (4.5 g L^−1), supplemented with 10% FBS, 1% L-glutamine and 100 U mL^–1 penicillin/streptomycin. Cells were maintained at 37 °C in a humidified atmosphere of 95% air and 5% CO2 and periodically screened for contamination.\n(§2) Cell viability has been determined using the 3-(4,5-dimethylthiazol-2-y1)-2,5-diphenyltetrazolium bromide (MTT, Sigma–Aldrich, Milan, Italy) assay. Cells have been seeded on 48-well plates and grown in complete medium. Before being treated, cells have been starved in serum free medium for 24 h for allowing cell cycle synchronization. […] Data are representative of three independent experiments; standard deviations (SD) have been shown."}, "[2]": {"tested_on": "MDA-MB-231 human breast cancer cells", "assay": "MTT cell viability, MDA-MB-231", "assay_type": "cell-based", "details": "72 h, mean ± SD", "procedure": "as §1, §2"}, "MDA-MB-231 cells [3]": {"tested_on": "MDA-MB-231 cells", "assay": "Immunofluorescence of microtubules, MDA-MB-231", "assay_type": "cell-based, human", "details": "at IC50 value, 24 h", "procedure": "Cells were grown on glass coverslips in full media, then serum-deprived for 24 h and exposed to compounds for 24 h (concentration equal to its IC50 value). Then, the cells after PBS-washed, were fixed with cold methanol (15 min/−20 °C) and incubated with primary antibody, diluted in blocking solution (4 °C/overnight), as previously described. The mouse anti-β-Actin (69879) and the rabbit anti-β tubulin (9104) were purchased from Santa Cruz Biotechnology and used at 1:100 dilution. Coverslips were then washed 3 times with PBS, then fixed cells were incubated with the secondary antibody Alexa Fluor® 568 conjugate goat-anti-mouse and Alexa Fluor® 488 conjugate goat-anti-rabbit (1:500, Thermo Fisher Scientific, Waltham, MA, USA). Nuclei were stained using DAPI (Sigma–Aldrich, Mila, Italy) for 10 min at a concentration of 0.2 μg/mL then washed 3 times with PBS. Fluorescence was detected using a fluorescence microscope (Leica DM 6000). LAS-X software was used to acquire and process all images.\nFigure 5 Immunofluorescence studies. […] Panels A: DAPI, excitation/emission wavelength 350 nm/460 nm; panels B: β-tubulin (Alexa Fluor® 488) excitation/emission wavelength 490 nm/515 nm; panels C show a merge. Representative fields are shown."}, "caspase-9": {"tested_on": "caspase-9", "details": "5 μM, 24 h, MDA-MB-231 cells"}, "tubulin": {"tested_on": "tubulin", "assay": "In vitro tubulin-polymerization assay (turbidity at 350 nm)", "assay_type": "biochemical", "details": "10 µM", "procedure": "Tubulin-polymerization inihibition was measured using in vitro Tubulin-Polymerization Assay Kit purchased fromEMD Millipore Corporation. Polymerization reactions occur in 70 µL final volumes, of which 60 µL is the 60 µM tubulin in 1 × PB-GTP and 10 µL is the test substance dissolved in 1 × PB-GTP. […] These reactives were combined in 96-well plate on ice. After the plate was transferred into the spectrophotometer pre-warmed at 37 °C and the turbidity variation was measured every 30 s at 350 nm for 90 min. The plate was shaked for 10 s before each measurement. Turbidity (absorbance) readings were used to calculate the extent of polymerization [% inhibition = (1−A350 sample/A350 control) × 100].\nFigure 4 Tubulin-polymerization assay. […] Two positive control molecules, Paclitaxel and Vinblastine, were used as tubulin-stabilizing and tubulin-destabilizing agents, respectively. DMSO was used as a negative control. Assembly of tubulin into microtubules was determined by measuring the turbidity at 350 nm for 3600 s at 37 °C. All the compounds were used at a concentration of 10 μM."}, "[4]": {"tested_on": "MCF-10A human mammary epithelial cells", "assay": "MTT cell viability, normal MCF-10A", "assay_type": "cell-based", "details": "72 h, mean ± SD", "procedure": "as §1, §2"}, "MDA-MB-231 cells [5]": {"tested_on": "MDA-MB-231 cells", "details": "at IC50 value, 24 h", "procedure": "At this purpose, we performed immunostaining studies using the mitochondrial probe MitoTracker Deep Red FM and an anti-cytochrome c antibody, to follow the possible release of this protein from the mitochondrial district to the cytoplasm.\nThe same protocol was performed for mitochondrial staining. […] The primary antibody used in this case was the mouse anti-cytochrome c (556 433), purchased from BD Biosciences. The secondary antibodies used was Alexa Fluor® 488 conjugate goat-anti-mouse (1:500 dilution), purchased from Thermo Fisher Scientific, Waltham, MA, USA.\nImages were acquired at 63x magnification and representative fields are shown."}, "[6]": {"target": "T1, human topoisomerase II (hTopo II) (Homo sapiens, UniProt P11388)", "T1 construct": "purchased topoGEN, Port Orange, FL, USA", "T1 sequence (P11388 whole entry)": "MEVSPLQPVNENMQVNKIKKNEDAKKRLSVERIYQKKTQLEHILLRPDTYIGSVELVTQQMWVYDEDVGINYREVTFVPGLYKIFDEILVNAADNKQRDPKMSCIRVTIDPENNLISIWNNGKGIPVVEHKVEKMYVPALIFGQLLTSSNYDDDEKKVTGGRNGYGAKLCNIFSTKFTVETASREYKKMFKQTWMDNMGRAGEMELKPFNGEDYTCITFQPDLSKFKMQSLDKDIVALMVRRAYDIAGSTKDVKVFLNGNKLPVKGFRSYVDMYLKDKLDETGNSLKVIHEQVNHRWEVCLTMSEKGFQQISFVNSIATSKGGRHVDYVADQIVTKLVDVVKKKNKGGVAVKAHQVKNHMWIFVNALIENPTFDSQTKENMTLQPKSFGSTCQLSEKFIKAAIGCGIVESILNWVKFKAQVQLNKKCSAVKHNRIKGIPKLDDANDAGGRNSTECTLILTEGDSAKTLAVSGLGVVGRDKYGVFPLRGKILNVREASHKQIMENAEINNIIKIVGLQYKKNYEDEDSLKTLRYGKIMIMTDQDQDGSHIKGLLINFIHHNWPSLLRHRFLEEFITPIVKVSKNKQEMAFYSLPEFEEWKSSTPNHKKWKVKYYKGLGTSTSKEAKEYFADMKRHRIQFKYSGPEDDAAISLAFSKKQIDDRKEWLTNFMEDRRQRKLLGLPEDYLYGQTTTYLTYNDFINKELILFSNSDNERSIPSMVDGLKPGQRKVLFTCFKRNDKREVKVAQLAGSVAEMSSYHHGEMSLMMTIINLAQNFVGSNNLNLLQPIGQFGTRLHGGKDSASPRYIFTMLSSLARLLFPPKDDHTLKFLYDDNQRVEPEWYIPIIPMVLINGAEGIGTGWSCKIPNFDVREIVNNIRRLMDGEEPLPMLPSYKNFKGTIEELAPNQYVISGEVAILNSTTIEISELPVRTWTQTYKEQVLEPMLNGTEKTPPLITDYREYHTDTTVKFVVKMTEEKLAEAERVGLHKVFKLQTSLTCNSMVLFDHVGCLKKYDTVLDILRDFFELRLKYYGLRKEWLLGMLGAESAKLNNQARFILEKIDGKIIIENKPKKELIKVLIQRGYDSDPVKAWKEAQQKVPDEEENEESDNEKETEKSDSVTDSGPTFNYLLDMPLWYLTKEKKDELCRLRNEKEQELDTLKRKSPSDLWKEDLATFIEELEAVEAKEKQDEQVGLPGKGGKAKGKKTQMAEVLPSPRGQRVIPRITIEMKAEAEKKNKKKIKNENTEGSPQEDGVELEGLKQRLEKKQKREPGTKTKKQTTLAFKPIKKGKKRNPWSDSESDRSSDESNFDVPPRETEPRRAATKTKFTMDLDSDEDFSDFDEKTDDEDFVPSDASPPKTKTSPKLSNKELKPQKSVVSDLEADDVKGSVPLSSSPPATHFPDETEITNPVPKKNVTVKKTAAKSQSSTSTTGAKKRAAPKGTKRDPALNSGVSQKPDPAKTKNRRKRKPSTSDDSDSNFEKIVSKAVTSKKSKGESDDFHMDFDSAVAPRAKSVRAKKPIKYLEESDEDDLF", "assay": "Human topoisomerase II decatenation assay", "assay_type": "biochemical", "details": "1 μM", "procedure": "Decatenated and linear kDNA (Figure 8, lanes 1 and 2) are used as markers.\nhTopo II decatenation assays were performed in a final volume of […], as reported by Iacopetta et al., using […] of kinetoplast DNA (kDNA) (topoGEN, Port Orange, FL, USA), tested compounds and 3 units of hTopo II (topoGEN, Port Orange, FL, USA). The reaction products were loaded in an agarose gel with EB. At the end, the gel was washed with distilled water and analyzed using a UV transilluminator. The experiment was repeated three times.\nLane 1 and 2, decatenated and linear kDNA, respectively."}, "[7]": {"tested_on": "Hek-293 human embryonic kidney epithelial cells", "assay": "MTT cell viability, normal Hek-293", "assay_type": "cell-based", "procedure": "as §1, §2"}},
  "note": "Where two headings read alike, the source gives them in different places.",
  "data": [
    {"smiles": "C[n+]1c(Cl)c(Cl)n(CC(O)c2ccccc2)[c]1[Au-][c]1n(CC(O)c2ccccc2)c(Cl)c(Cl)[n+]1C.[Cl][Au-][Cl]", "note": "(racemic) [AuL7, bis-[4,5-dichloro-(N-methyl-N’(2-hydroxy-2-phenyl)ethyl-imidazole-2-ylidene)gold(I)]^+[dichloro-gold]^−]", "values": [
      {"measurement": "IC50", "setting": "[1]", "result": "31.9 ± 0.5", "unit": "µM"},
      {"measurement": "IC50", "setting": "[2]", "result": "2.1 ± 0.7", "unit": "µM"},
      {"measurement": "effect on microtubule network, MDA-MB-231", "setting": "MDA-MB-231 cells [3]", "result": "vinblastine-like mode of action"},
      {"measurement": "caspase-9 activity", "setting": "caspase-9", "result": "discrete increase"},
      {"measurement": "effect on tubulin-polymerization reaction", "setting": "tubulin", "result": "tubulin-polymerization inhibitor"},
      {"measurement": "final optical density value at 350 nm (OD350)", "setting": "tubulin; 37 °C, vehicle (DMSO) about 0.43", "result": "about 0.25"},
      {"measurement": "IC50", "setting": "[4]", "result": "> 200", "unit": "µM"},
      {"measurement": "IC50 MCF-10A", "setting": "[4]", "result": "inactive"},
      {"measurement": "cytochrome c localization", "setting": "MDA-MB-231 cells [5]", "result": "cytochrome c release and diffusion into the cytoplasmic compartment"},
      {"measurement": "mitochondrial integrity (MitoTracker Deep Red FM)", "setting": "MDA-MB-231 cells [5]", "result": "loss of mitochondrial structural integrity"},
      {"measurement": "inhibition of hTopo II decatenation activity", "setting": "[6]", "result": "total blockade of hTopoII activity"},
      {"measurement": "IC50", "setting": "[7]; normal cells, MTT, 72 h, mean ± SD, read-out: IC50 Hek-293", "result": 65, "unit": "µM"},
      {"measurement": "IC50", "setting": "[7]; read-out: IC50 Hek-293 of AuL7 after Quercetin pre-treatment, pre-treatment for 4 h with Quercetin (at 50 μM)", "result": "96.9 ± 1.1", "unit": "µM"}
    ]}
  ]
}
